Counter-ions that a name gives are not always drawn. Like-named read-outs stand apart in the source and are kept apart here.
Tests used:
Test in all cases: biochemical
recombinant human MMP-1 = target: T1, recombinant human MMP-1 (Homo sapiens, UniProt P03956); settings: read-out: MMP-1 IC50
T1 construct: made in house; host or cells: transfected HT-1080 cells (provided by Dr. Harold Welgus, Washington University)
T1 sequence (P03956 100-469): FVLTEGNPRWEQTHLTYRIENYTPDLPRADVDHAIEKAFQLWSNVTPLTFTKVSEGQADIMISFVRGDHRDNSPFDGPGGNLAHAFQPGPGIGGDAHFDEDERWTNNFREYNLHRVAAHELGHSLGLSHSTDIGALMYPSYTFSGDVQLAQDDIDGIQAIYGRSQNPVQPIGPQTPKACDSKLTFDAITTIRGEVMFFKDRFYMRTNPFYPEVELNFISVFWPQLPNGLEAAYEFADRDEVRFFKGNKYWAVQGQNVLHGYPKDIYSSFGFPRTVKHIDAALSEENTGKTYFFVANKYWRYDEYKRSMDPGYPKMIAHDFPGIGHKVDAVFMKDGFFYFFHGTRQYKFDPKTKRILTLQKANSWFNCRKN

recombinant human MMP-2 = target: T2, recombinant human MMP-2 (Homo sapiens, UniProt P08253)
T2 sequence (P08253 110-660): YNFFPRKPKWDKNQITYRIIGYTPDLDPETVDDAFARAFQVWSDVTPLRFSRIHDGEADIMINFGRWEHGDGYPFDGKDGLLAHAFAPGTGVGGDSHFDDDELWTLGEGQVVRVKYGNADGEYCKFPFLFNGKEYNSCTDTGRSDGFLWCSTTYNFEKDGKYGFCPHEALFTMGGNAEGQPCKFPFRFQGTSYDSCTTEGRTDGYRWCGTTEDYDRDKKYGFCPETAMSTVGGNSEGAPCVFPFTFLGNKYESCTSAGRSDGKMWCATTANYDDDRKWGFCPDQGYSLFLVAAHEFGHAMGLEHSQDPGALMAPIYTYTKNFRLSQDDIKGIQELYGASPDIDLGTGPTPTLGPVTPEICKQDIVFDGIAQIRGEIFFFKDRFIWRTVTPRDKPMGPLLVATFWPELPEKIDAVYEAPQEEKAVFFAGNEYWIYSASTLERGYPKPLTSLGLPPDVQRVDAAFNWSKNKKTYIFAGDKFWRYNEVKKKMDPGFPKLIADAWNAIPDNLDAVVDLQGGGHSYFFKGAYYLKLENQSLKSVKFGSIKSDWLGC

recombinant human MMP-13 = recombinant human MMP-13 (Homo sapiens, UniProt P45452); settings: read-out: MMP-13 IC50
recombinant human MMP-9 = recombinant human MMP-9 (Homo sapiens, UniProt P14780); settings: read-out: MMP-9 IC50
Sequence of recombinant human MMP-9 (P14780 107-707 limits assumed): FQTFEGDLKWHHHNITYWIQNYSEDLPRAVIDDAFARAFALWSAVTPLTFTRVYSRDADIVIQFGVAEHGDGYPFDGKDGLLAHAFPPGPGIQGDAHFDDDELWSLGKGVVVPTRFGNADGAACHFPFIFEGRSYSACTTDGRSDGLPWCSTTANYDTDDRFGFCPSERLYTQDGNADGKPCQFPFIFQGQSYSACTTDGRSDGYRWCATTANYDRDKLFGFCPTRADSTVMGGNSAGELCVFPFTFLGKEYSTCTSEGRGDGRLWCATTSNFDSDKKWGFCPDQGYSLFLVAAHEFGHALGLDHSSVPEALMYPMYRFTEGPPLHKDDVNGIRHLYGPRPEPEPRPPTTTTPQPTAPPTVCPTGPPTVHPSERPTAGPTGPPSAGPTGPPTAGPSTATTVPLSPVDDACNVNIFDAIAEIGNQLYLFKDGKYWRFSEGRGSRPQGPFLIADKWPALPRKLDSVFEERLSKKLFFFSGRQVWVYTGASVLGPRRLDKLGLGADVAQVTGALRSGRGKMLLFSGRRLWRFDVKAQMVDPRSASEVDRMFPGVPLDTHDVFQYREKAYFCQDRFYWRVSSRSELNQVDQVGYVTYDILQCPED

[1] = Inhibition Table B, read-out: MMP-2 IC50
[2] = Inhibition Table A, read-out: MMP-2 IC50

In the case of `Cc1cc(Oc2ccc(S(=O)(=O)C3(C(=O)NO)CCN(CC(=O)O)CC3)cc2)ccc1Cl` [Example 80, 4-[[4-(4-chloro-3-methylphenoxy)phenyl]sulfonyl]-4-(hydroxyamino)carbonyl]-1-piperidineacetic Acid, Monohydrochloride], the IC50 (recombinant human MMP-1; Inhibition Table B) is reported as 3000 nM, the IC50 (recombinant human MMP-2; [1]) is reported as 0.1 nM and the IC50 (recombinant human MMP-13; Inhibition Table B) is reported as 0.2 nM. It also gave an IC50 (recombinant human MMP-9; Inhibition Table B) of 1.8 nM.

For `Cc1ccc(Oc2ccc(S(=O)(=O)C3(C(=O)NO)CN(C)CN(C)C3)cc2)cc1C` [Example 78, 5-[4-(3,4-dimethylphenoxy)phenyl]sulfonyl-N^5-hydroxy-1,3-dimethylhexahydro-5-pyrimidinecarboxamide, Dihydrochloride], the IC50 (recombinant human MMP-1; Inhibition Table B) was > 10000 nM, the IC50 (recombinant human MMP-2; [1]) was 6 nM and the IC50 (recombinant human MMP-13; Inhibition Table B) was 10 nM. It also gave an IC50 (recombinant human MMP-9; Inhibition Table B) of 50 nM.

`O=C(NO)C1(S(=O)(=O)c2ccc(NCc3ccccc3)cc2)CCOCC1` [Example 68, tetrahydro-N-hydroxy-4-[[4-[(4-phenylmethyl)amino]phenyl]-sulfonyl]-2H-pyran-4-carboxamide, Monohydrochloride] was tested, and the IC50 (recombinant human MMP-1; Inhibition Table B) was > 10000 nM, the IC50 (recombinant human MMP-2; [1]) was 5.3 nM and the IC50 (recombinant human MMP-13; Inhibition Table B) was 6 nM. It also gave an IC50 (recombinant human MMP-9; Inhibition Table B) of 130 nM.

With `O=C(O)CCc1ccc(Oc2ccc(S(=O)(=O)C3(C(=O)NO)CCOCC3)cc2)cc1` [Example 105, 4-[4-[[tetrahydro-4-[(hydroxyamino)carbonyl]-2H-pyran-4-yl]sulfonyl]phenoxy]benzenepropanoic Acid] the IC50 (recombinant human MMP-1; Inhibition Table B) was > 10000 nM, the IC50 (recombinant human MMP-2; [1]) was 3500 nM and the IC50 (recombinant human MMP-13; Inhibition Table B) was 0.85 nM. The IC50 (recombinant human MMP-9; Inhibition Table B) was 114 nM.

Work on `COc1ccc(Sc2ccc(S(=O)(=O)C3(C(=O)NO)CCOCC3)cc2)cc1` [Example 65, Tetrahydro-N-hydroxy-4-[[4-(4-methoxyphenylthio)phenyl]-sulfonyl]-2H-pyran-4-carboxamide] yielded an IC50 (recombinant human MMP-1; Inhibition Table B) of 8000 nM, an IC50 (recombinant human MMP-2; [1]) of 0.6 nM and an IC50 (recombinant human MMP-13; Inhibition Table B) of 0.7 nM. The IC50 (recombinant human MMP-9; Inhibition Table B) was 4.4 nM.

For `CC(C)(C(=O)NO)S(=O)(=O)c1ccc(Oc2ccccc2)cc1` [Example 2], the IC50 (recombinant human MMP-1; Inhibition Table A) was 220 nM, the IC50 (recombinant human MMP-2; [2]) was 0.1 nM and the IC50 (recombinant human MMP-13; Inhibition Table A) was 0.25 nM. The IC50 (recombinant human MMP-9; Inhibition Table A) was 1.4 nM.

In the case of `CC(=O)N1CCN(c2ccc(Oc3ccc(S(=O)(=O)C4(C(=O)NO)CCOCC4)cc3)cc2)CC1` [Example 123, 4-[[4-[4-(4-acetyl-1-piperazinyl)phenoxy]phenyl]sulfonyl]-tetrahydro-N-hydroxy-2H-pyran-4-carboxamide, Trifluoroacetic Acid Salt], the IC50 (recombinant human MMP-1; Inhibition Table B) is reported as 3600 nM, the IC50 (recombinant human MMP-2; [1]) is reported as 1.8 nM and the IC50 (recombinant human MMP-13; Inhibition Table B) is reported as 1.8 nM. It also gave an IC50 (recombinant human MMP-9; Inhibition Table B) of 27.8 nM.

With `O=C(NO)C1(S(=O)(=O)c2ccc(Oc3cc(F)cc(F)c3)cc2)CCOCC1` [Example 70, 4-[[4-(3,5-difluorophenoxy)phenyl]sulfonyl]tetrahydro-N-hydroxy-2H-pyran-4-carboxamide] the IC50 (recombinant human MMP-1; Inhibition Table B) was 1500 nM, the IC50 (recombinant human MMP-2; [1]) was 0.2 nM and the IC50 (recombinant human MMP-13; Inhibition Table B) was 0.8 nM. It also gave an IC50 (recombinant human MMP-9; Inhibition Table B) of 7.3 nM.

In the case of `C#CCN1CCC(C(=O)NO)(S(=O)(=O)c2ccc(Sc3ccc(F)cc3)cc2)CC1` [Example 24], the IC50 (recombinant human MMP-1; Inhibition Table A) is reported as > 10000 nM, the IC50 (recombinant human MMP-2; [2]) is reported as 1 nM and the IC50 (recombinant human MMP-13; Inhibition Table A) is reported as 0.4 nM. The IC50 (recombinant human MMP-9; Inhibition Table A) was 3.7 nM.

Compound `Cc1cc(Oc2ccc(S(=O)(=O)C3(C(=O)NO)CCNCC3)cc2)ccc1F` [Example 83, 4-[[4-(4-fluoro-3-methylphenoxy)phenyl]sulfonyl]-N-hydroxy-4-piperidine Carboxamide, Monohydrochloride] has an IC50 (recombinant human MMP-1; Inhibition Table B) of 8000 nM, an IC50 (recombinant human MMP-2; [1]) of 1.2 nM and an IC50 (recombinant human MMP-13; Inhibition Table B) of 1.5 nM. It also gave an IC50 (recombinant human MMP-9; Inhibition Table B) of 5 nM.

`O=C(NO)C1(S(=O)(=O)c2ccc(Sc3ccc(Cl)cc3)cc2)CCOCC1` [Example 25] was tested, and the IC50 (recombinant human MMP-1; Inhibition Table A) was > 10000 nM, the IC50 (recombinant human MMP-2; [2]) was 2.6 nM and the IC50 (recombinant human MMP-13; Inhibition Table A) was 3 nM.

Work on “N,N-dimethyl-5-[4-[[tetrahydro-4-1[(hydroxyamino)-carbonyl]-2H-pyran-4-yl]sulfonyl]-phenoxy]-1H-indole-2-carboxamide, Trifluoroacetic Acid Salt [Example 124]” yielded an IC50 (recombinant human MMP-1; Inhibition Table B) of 1000 nM, an IC50 (recombinant human MMP-2; [1]) of 0.5 nM and an IC50 (recombinant human MMP-13; Inhibition Table B) of 1.1 nM.

In the case of `COc1ccc(Sc2ccc(S(=O)(=O)C3(C(=O)NO)CCSCC3)cc2)cc1` [Example 51, Tetrahydro-N-hydroxy-4-[[4-[(4-methoxypheny)thio]phenyl]sulfonyl]-2H-thiopyran-4-carboxamide], the IC50 (recombinant human MMP-1; Inhibition Table B) is reported as 5500 nM, the IC50 (recombinant human MMP-2; [1]) is reported as 0.7 nM and the IC50 (recombinant human MMP-13; Inhibition Table B) is reported as 1.3 nM.

In the case of `O=C(NO)C1(S(=O)(=O)c2ccc(N3CCN(CCO)CC3)cc2)CCOCC1` [Example 127], the IC50 (recombinant human MMP-1) is reported as > 10000 nM, the IC50 (recombinant human MMP-2; [1]) is reported as 37 nM and the IC50 (recombinant human MMP-13; Inhibition Table B) is reported as 40 nM.

For `O=Cc1ccccc1-c1ccc(S(=O)(=O)C2(C(=O)NO)CCOCC2)cc1` [Example 230], the IC50 (recombinant human MMP-1; Inhibition Table B) was > 10000 nM, the IC50 (recombinant human MMP-2; [1]) was > 100 nM and the IC50 (recombinant human MMP-13; Inhibition Table B) was > 100 nM.

For `CC(C)N1CCC(C(=O)NO)(S(=O)(=O)c2ccc(Sc3ccccc3)cc2)CC1` [Example 34, N-hydroxy-1-(1-methylethyl)-4-[[4-(phenylthio)phenyl]sulfonyl]-4-piperidinecarboxamide, Monohydrochloride], the IC50 (recombinant human MMP-1) was > 10000 nM, the IC50 (recombinant human MMP-2; [1]) was 1.1 nM and the IC50 (recombinant human MMP-13; Inhibition Table B) was 1.2 nM.

Work on `O=C(NO)C1(S(=O)(=O)c2ccc(Oc3ccc(F)c(Cl)c3)cc2)CCNCC1` [Example 84, 4-[[4-(3-chloro-4-fluorophenoxy)phenyl]sulfonyl]-N-hydroxy-4-piperidine Carboxamide, Monohydrochloride] yielded an IC50 (recombinant human MMP-1; Inhibition Table B) of 8000 nM, an IC50 (recombinant human MMP-2; [1]) of 1.8 nM and an IC50 (recombinant human MMP-13; Inhibition Table B) of 2.5 nM.

For `O=C(NO)C1(S(=O)(=O)c2ccc(Oc3ccc(F)c(F)c3)cc2)CCOCC1` [Example 56, 4-[[4-(3,4-difluorophenoxy)-phenyl]sulfonyl]tetrahydro-N-hydroxy-2H-pyran-4-carboxamide], the IC50 (recombinant human MMP-1; Inhibition Table B) was 1500 nM, the IC50 (recombinant human MMP-2; [1]) was < 0.1 nM and the IC50 (recombinant human MMP-13; Inhibition Table B) was 0.15 nM.

For `O=C(NO)C1(S(=O)(=O)c2ccc(Sc3ccccc3)cc2)CCSCC1` [Example 49, tetrahydro-N-hydroxy-4-[[4-(phenylthio)phenyl]sulfonyl]-2H-thiopyran-4-carboxamide], the IC50 (recombinant human MMP-1; Inhibition Table B) was > 10000 nM, the IC50 (recombinant human MMP-2; [1]) was 76.9 nM and the IC50 (recombinant human MMP-13; Inhibition Table B) was 90 nM.

For `O=C(NO)C1(S(=O)(=O)c2ccc(N3CCC(c4ccccc4)CC3)cc2)CCOCC1` [Example 11], the IC50 (recombinant human MMP-1; Inhibition Table A) was > 10000 nM, the IC50 (recombinant human MMP-2; MMP-2 IC50 (nM)) was 4.4 nM and the IC50 (recombinant human MMP-13; Inhibition Table A) was 6 nM.

With `C#CCN1CCC(C(=O)NO)(S(=O)(=O)c2ccc(SC3CCCC3)cc2)CC1` [Example 45, 4-[[4-(Cyclopentylthio)-phenyl]sulfonyl]-N-hydroxy-1-(2-propynyl)-4-piperidinecarboxamide, Monohydrochloride] the IC50 (recombinant human MMP-1; Inhibition Table B) was 8800 nM, the IC50 (recombinant human MMP-2; [1]) was 2.5 nM and the IC50 (recombinant human MMP-13; Inhibition Table B) was 1.7 nM.

With `O=C(NO)C1(S(=O)(=O)c2ccc(Sc3ccc(F)cc3)cc2)CCNCC1` [Example 22] the IC50 (recombinant human MMP-1; Inhibition Table A) was > 10000 nM, the IC50 (recombinant human MMP-2; [2]) was 0.9 nM and the IC50 (recombinant human MMP-13; Inhibition Table A) was 1.2 nM.

In the case of `O=C(NOC1CCCCO1)C1(S(=O)(=O)c2ccc(F)cc2)CCOCC1` (stereo not shown) [Example 55, 4-[(4-fluorophenyl)-sulfonyl]tetrahydro-N-[(tetrahydro-2H-pyran-2-yl)oxy]-2H-pyran-4-carboxamide], the IC50 (recombinant human MMP-1; Inhibition Table B) is reported as 1200 nM, the IC50 (recombinant human MMP-2; [1]) is reported as 0.1 nM and the IC50 (recombinant human MMP-13; Inhibition Table B) is reported as 0.3 nM.

In the case of `O=C(NO)C1(S(=O)(=O)c2ccc(-c3ccsc3)cc2)CCOCC1` [Example 215], the IC50 (recombinant human MMP-1; Inhibition Table B) is reported as 250 nM, the IC50 (recombinant human MMP-2; [1]) is reported as < 1 nM and the IC50 (recombinant human MMP-13; Inhibition Table B) is reported as < 1 nM.

For `CC(C)(C)OC(=O)N1CCC(C(=O)NO)(S(=O)(=O)c2ccc(Oc3ccccc3)cc2)CC1` [Example 3], the IC50 (recombinant human MMP-1; Inhibition Table A) was 1140 nM, the IC50 (recombinant human MMP-2; [2]) was 0.2 nM and the IC50 (recombinant human MMP-13; Inhibition Table A) was 0.3 nM.

Work on `C#CCN1CCC(C(=O)NO)(S(=O)(=O)c2ccc(Oc3cccc(C)c3)cc2)CC1` [Example 41, N-hydroxy-4-[[4-(3-methylphenoxy)phenyl]sulfonyl]-1-(2-propynyl)-4-piperidinecarboxamide, Monohydrochloride] yielded an IC50 (recombinant human MMP-1; Inhibition Table B) of 1200 nM, an IC50 (recombinant human MMP-2; [1]) of 0.15 nM and an IC50 (recombinant human MMP-13; Inhibition Table B) of 0.2 nM.

Source: US20010039287A1, “AROMATIC SULFONE HYDROXAMIC ACID METALLOPROTEASE INHIBITOR” (priority 1997, published 2001)
